How the values were obtained:
PRMT5 [1] = biological target: T1, PRMT5 (Homo sapiens, UniProt O14744); test: PRMT5 biochemical IC50 assay with SAM as cofactor; conditions: PRMT5, SAM as cofactor; read-out: SAM IC50
T1 construct: purchased Viva (custom protein)

PRMT5 [2] = biological target: T1, PRMT5; test: PRMT5 biochemical IC50 assay with no cofactor; conditions: PRMT5, no cofactor; read-out: No Cofactor/rel IC50
Source text: Table 1 indicates IC50 values (μM) against PRMT5 for exemplary compounds in the presence of SAM as cofactor, with no cofactor, and with MTA as cofactor, respectively (columns 4-6). […] Ki values can be calculated from the IC50 values as described in the Examples section. As detailed in the Examples section, for the assay performed in the presence of SAM, IC50=Ki×1.5 (Ki=IC50/1.5).

PRMT5 [3] = biological target: T1, PRMT5; test: PRMT5 biochemical IC50 assay with MTA as cofactor; conditions: PRMT5, MTA as cofactor; read-out: MTA IC50
[4] = system: HAP1 MTAP-intact cell line; test: SDMA in-cell western assay, HAP1 MTAP-intact; type: cell-based; conditions: Homo sapiens, HAP1, SDMA in-cell western, HAP1 MTAP-intact; read-out: MTAP HAP1 intact IC50
Outline: (§1)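 MTAP-null vs endogenous-MTAP HAP1 isogenic cells; in-cell western SDMA readout; IC50 per line.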

[5] = system: HAP1 MTAP-deleted cell line; test: SDMA in-cell western assay, HAP1 MTAP-deleted; type: cell-based; conditions: for IC50: Homo sapiens, HAP1, SDMA in-cell western, HAP1 MTAP-deleted, read-out: HAP1 MTAP deleted IC50; for MTAP intact/deleted ratio: IC50 ratio HAP1 MTAP-intact / HAP1 MTAP-deleted, SDMA in-cell western
Outline: as §1

[6] = system: HAP1 MTAP-deleted cell line; test: Viability assay, MTAP-deleted cell line; type: cell-based; conditions: Homo sapiens, HAP1, viability assay, HAP1 MTAP-deleted; read-out: HAP1 MTAP deleted viability
Source text: Table 1 additionally indicates IC50 values in a viability assay for the MTAP-deleted cell line (column 10), indicating the effect of treatment with compound on cell survival.

T1 sequence (O14744 whole entry): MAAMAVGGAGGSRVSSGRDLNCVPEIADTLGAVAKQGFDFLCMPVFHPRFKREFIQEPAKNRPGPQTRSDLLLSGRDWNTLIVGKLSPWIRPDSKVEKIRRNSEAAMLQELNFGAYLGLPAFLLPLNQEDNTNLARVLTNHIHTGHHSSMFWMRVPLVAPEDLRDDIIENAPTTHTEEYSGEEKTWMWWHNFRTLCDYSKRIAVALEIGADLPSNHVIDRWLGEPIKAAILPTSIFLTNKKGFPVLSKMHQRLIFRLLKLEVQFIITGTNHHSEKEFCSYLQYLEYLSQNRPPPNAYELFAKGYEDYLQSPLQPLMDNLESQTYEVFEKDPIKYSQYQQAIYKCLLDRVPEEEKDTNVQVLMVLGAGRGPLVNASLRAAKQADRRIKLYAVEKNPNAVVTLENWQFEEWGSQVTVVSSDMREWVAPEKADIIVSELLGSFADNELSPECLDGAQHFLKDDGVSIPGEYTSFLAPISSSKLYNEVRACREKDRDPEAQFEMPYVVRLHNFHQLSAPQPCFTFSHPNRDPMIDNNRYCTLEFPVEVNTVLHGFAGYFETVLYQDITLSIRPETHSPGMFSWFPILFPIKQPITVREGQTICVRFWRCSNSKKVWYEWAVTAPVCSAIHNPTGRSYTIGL
T1 sequence (Q9BQA1 whole entry partner): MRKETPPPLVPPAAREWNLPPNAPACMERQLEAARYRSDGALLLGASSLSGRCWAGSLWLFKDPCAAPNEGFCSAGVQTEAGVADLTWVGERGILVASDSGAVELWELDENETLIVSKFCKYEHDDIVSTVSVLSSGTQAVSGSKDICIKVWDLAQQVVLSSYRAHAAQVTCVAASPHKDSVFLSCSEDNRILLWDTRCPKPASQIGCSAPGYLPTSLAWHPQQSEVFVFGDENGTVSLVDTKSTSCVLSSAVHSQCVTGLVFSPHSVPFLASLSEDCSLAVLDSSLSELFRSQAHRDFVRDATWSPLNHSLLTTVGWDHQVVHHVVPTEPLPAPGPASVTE

| IC50 (PRMT5 [1]) [nM] | IC50 (PRMT5 [2]) [nM] | IC50 (PRMT5 [3]) [nM] | IC50 [4] [nM] | IC50 [5] [nM] | Structure (SMILES) | MTAP intact/deleted ratio [5] | IC50 [6] [nM] |
| --- | --- | --- | --- | --- | --- | --- | --- |
| > 500 | > 500 | > 500 | > 1000 | > 1000 | C[C@@H]1CC[C@@H](c2ccc3[nH]ncc3n2)N(C(=O)C(=O)Nc2cncc(C(N)=O)c2)C1 (single isomer, unassigned) [Compound 787] | C (an IC50 ratio of less than 3 fold) | > 10000 |
| 50 to 500 | < 50 | < 50 | 100 to 1000 | < 100 | Cc1cc(NC(=O)C(=O)N2C[C@H](C)CC[C@H]2c2ccc3[nH]ncc3n2)cnc1N (single isomer, unassigned) [Compound 788] | A (an IC50 ratio greater than or equal to 10 fold) | < 1000 |
| > 500 | > 500 | > 500 | > 1000 | > 1000 | Cc1cc(NC(=O)C(=O)N2C[C@@H](C)CC[C@@H]2c2ccn(-c3cc[nH]n3)n2)cnc1N (single isomer, unassigned) [Compound 789] | B (an IC50 ratio greater than or equal to 3 fold but lower than 10 fold) | > 10000 |
| > 500 | > 500 | > 500 | > 1000 | 100 to 1000 | Cc1cc(NC(=O)C(=O)N2C[C@@H](C)CC[C@@H]2c2cccc3[nH]ncc23)cnc1N (single isomer, unassigned) [Compound 790] | A (an IC50 ratio greater than or equal to 10 fold) | > 10000 |
| 50 to 500 | < 50 | < 50 | > 1000 | < 100 | C[C@@H]1CC[C@@H](c2ccc(C(N)=O)s2)N(C(=O)C(=O)Nc2cncc(C(N)=O)c2)C1 (single isomer, unassigned) [Compound 792] | A (an IC50 ratio greater than or equal to 10 fold) | 1000 to 10000 |
| 50 to 500 | < 50 | < 50 | > 1000 | < 100 | COc1ncc(NC(=O)C(=O)N2C[C@H](C)CC[C@H]2c2ccc3[nH]cnc3c2)cc1C(N)=O (single isomer, unassigned) [Compound 794] | A (an IC50 ratio greater than or equal to 10 fold) | < 1000 |
| 50 to 500 | 50 to 500 | < 50 | > 1000 | < 100 | C[C@@]1(F)CC[C@H](c2ccccc2)N(C(=O)C(=O)Nc2cncc(C(N)=O)c2)C1 (single isomer, unassigned) [Compound 795, 5-(2-(5-fluoro-5-methyl-2-phenylpiperidin-1-yl)-2-oxoacetamido)nicotinamide] | A (an IC50 ratio greater than or equal to 10 fold) | 1000 to 10000 |
| > 500 | > 500 | > 500 | > 1000 | > 1000 | C[C@H]1CC[C@H](c2ccc(C(N)=O)s2)N(C(=O)C(=O)Nc2cncc(C(N)=O)c2)C1 (single isomer, unassigned) [Compound 796] | C (an IC50 ratio of less than 3 fold) | > 10000 |
| 50 to 500 | < 50 | < 50 | > 1000 | < 100 | COc1ncc(NC(=O)C(=O)N2C[C@@H](C)CC[C@@H]2c2ccc3sc(C)nc3c2)cc1C(N)=O (single isomer, unassigned) [Compound 797] | A (an IC50 ratio greater than or equal to 10 fold) | < 1000 |
| > 500 | > 500 | > 500 | > 1000 | > 1000 | C[C@]1(F)CC[C@@H](c2ccccc2)N(C(=O)C(=O)Nc2cncc(C(N)=O)c2)C1 (single isomer, unassigned) [Compound 798, 5-(2-(5-fluoro-5-methyl-2-phenylpiperidin-1-yl)-2-oxoacetamido)nicotinamide] | C (an IC50 ratio of less than 3 fold) | > 10000 |
| > 500 | > 500 | > 500 | > 1000 | > 1000 | COc1ncc(NC(=O)C(=O)N2C[C@H](C)CC[C@H]2c2ccc(-c3nccs3)cc2)cc1C(N)=O (single isomer, unassigned) [Compound 799] | C (an IC50 ratio of less than 3 fold) | > 10000 |
| 50 to 500 | < 50 | < 50 | 100 to 1000 | < 100 | CCc1cc(NC(=O)C(=O)N2C[C@@H](C)CC[C@@H]2c2ccc3sc(C)nc3c2)cnc1N (single isomer, unassigned) [Compound 800] | A (an IC50 ratio greater than or equal to 10 fold) | < 1000 |
| > 500 | > 500 | > 500 | > 1000 | > 1000 | CCc1cc(NC(=O)C(=O)N2C[C@H](C)CC[C@H]2c2ccc3sc(C)nc3c2)cnc1N (single isomer, unassigned) [Compound 801] | B (an IC50 ratio greater than or equal to 3 fold but lower than 10 fold) | > 10000 |
| > 500 | > 500 | > 500 | > 1000 | > 1000 | Cc1cc(NC(=O)C(=O)N2C[C@H](C)CC[C@H]2c2ccc(CO)cc2)cnc1N (single isomer, unassigned) [Compound 802] | B (an IC50 ratio greater than or equal to 3 fold but lower than 10 fold) | > 10000 |
| > 500 | > 500 | > 500 | > 1000 | > 1000 | C[C@@H]1CC[C@@H](c2ccc3[nH]c(=O)ccc3c2)N(C(=O)C(=O)Nc2cncc(C(N)=O)c2)C1 (single isomer, unassigned) [Compound 804] | C (an IC50 ratio of less than 3 fold) | > 10000 |
| > 500 | > 500 | > 500 | > 1000 | 100 to 1000 | COc1ncc(NC(=O)C(=O)N2C[C@@H](C)CC[C@@H]2c2ccc3[nH]cnc3c2)cc1C(N)=O (single isomer, unassigned) [Compound 805] | A (an IC50 ratio greater than or equal to 10 fold) | > 10000 |
| 50 to 500 | < 50 | < 50 | 100 to 1000 | < 100 | Cc1cc(NC(=O)C(=O)N2C[C@@H](C)CC[C@@H]2c2ccc(CO)cc2)cnc1N (single isomer, unassigned) [Compound 806] | A (an IC50 ratio greater than or equal to 10 fold) | < 1000 |
| 50 to 500 | < 50 | < 50 | 100 to 1000 | < 100 | COc1ncc(NC(=O)C(=O)N2C[C@@H](C)CC[C@@H]2c2ccc3[nH]c(=O)ccc3c2)cc1C(N)=O (single isomer, unassigned) [Compound 807] | A (an IC50 ratio greater than or equal to 10 fold) | < 1000 |
| 50 to 500 | < 50 | < 50 | > 1000 | 100 to 1000 | C[C@H]1CC[C@H](c2ccc3[nH]c(=O)ccc3c2)N(C(=O)C(=O)Nc2cncc(C(N)=O)c2)C1 (single isomer, unassigned) [Compound 809] | A (an IC50 ratio greater than or equal to 10 fold) | 1000 to 10000 |
| > 500 | > 500 | > 500 | > 1000 | > 1000 | COc1ncc(NC(=O)C(=O)N2C[C@H](C)CC[C@H]2c2ccc3[nH]c(=O)ccc3c2)cc1C(N)=O (single isomer, unassigned) [Compound 810] | B (an IC50 ratio greater than or equal to 3 fold but lower than 10 fold) | > 10000 |
| 50 to 500 | 50 to 500 | < 50 | > 1000 | 100 to 1000 | COc1ncc(NC(=O)C(=O)N2C[C@@H](C)CC[C@@H]2c2ccc(-c3nccs3)cc2)cc1C(N)=O (single isomer, unassigned) [Compound 811] | A (an IC50 ratio greater than or equal to 10 fold) | 1000 to 10000 |
| 50 to 500 | 50 to 500 | < 50 | > 1000 | 100 to 1000 | CCc1cc(NC(=O)C(=O)N2C[C@H](C)CC[C@H]2c2ccc(-c3nccs3)cc2)cnc1N (single isomer, unassigned) [Compound 813] | A (an IC50 ratio greater than or equal to 10 fold) | < 1000 |
